Laboratory results published in US20240317741A1, “NAPHTHYRIDINE DERIVATIVE AS ATR INHIBITOR AND METHOD FOR PREPARING SAME” (WIGEN BIOMEDICINE TECHNOLOGY (SHANGHAI) CO., LTD., priority 2021, published 2024).

What follows are compounds tested on MIA PaCa-2 cells (assay: In-vitro anti-proliferative activity against MIA PaCa-2 cells). Conditions: Homo sapiens, 72 h after dosing, intracellular ATP content.
Type: cell-based
Procedure: MIA PaCa-2 cells were seeded on a 384-well plate at 3000 cells/well. After overnight adherence culture, DMSO or the compounds serially diluted 1:5 from 5 μM were added. […] The inhibition percentage of viable cells by the compounds was calculated by comparing with the DMSO group, and the IC50 value was calculated.

Row | SMILES | IC50
1 | CC(C)N1CCC(C#N)(c2cc(N3CCOC[C@H]3C)nc3c(-c4ccn[nH]4)nccc23)CC1 [Compound 67] | < 1000 nM
2 | C[C@@H]1COCCN1c1cc(C2(C#N)CCN(CC3CCC3)CC2)c2ccnc(-c3ccn[nH]3)c2n1 [Compound 83] | < 1000 nM
3 | C[C@@H]1COCCN1c1cc(C2(C#N)CC2)c2ccnc(-c3ccn[nH]3)c2n1 [Compound 28] | > 5000 nM
4 | C[C@@H]1COCCN1c1cc(C2(C#N)CCN(CC(F)F)CC2)c2ccnc(-c3ccn[nH]3)c2n1 [Compound 42] | < 1000 nM
5 | C[C@@H]1COCCN1c1cc(C2(C#N)CCN(CC(N)=O)CC2)c2ccnc(-c3ccn[nH]3)c2n1 [Compound 76] | < 1000 nM
6 | C[C@@H]1COCCN1c1cc(C(C)(C)C#N)c2ccnc(-c3ccn[nH]3)c2n1 [Compound 3, (R)-2-methyl-2-(2-(3-methylmorpholino)-8-(1H-pyrazol-5-yl)-1,7-naphthyridin-4-yl)propionitrile] | > 5000 nM
7 | C[C@@H]1COCCN1c1cc(C2(C#N)CCN(C3CN(C)C3)CC2)c2ccnc(-c3ccn[nH]3)c2n1 [Compound 72] | < 1000 nM
8 | C[C@@H]1COCCN1c1cc(C2(C#N)CCN(CC3CC3)CC2)c2ccnc(-c3ccn[nH]3)c2n1 [Compound 82] | < 1000 nM
9 | C[C@@H]1COCCN1c1cc(C2(C#N)CCN(C3COC3)CC2)c2ccnc(-c3ccn[nH]3)c2n1 [Compound 70] | < 1000 nM
10 | COCCN1CCC(C#N)(c2cc(N3CCOC[C@H]3C)nc3c(-c4ccn[nH]4)nccc23)CC1 [Compound 75] | < 1000 nM
11 | CC(=O)N1CCCC(C#N)(c2cc(N3CCOC[C@H]3C)nc3c(-c4ccn[nH]4)nccc23)C1 (stereo partly drawn) [Compound 40] | > 5000 nM
12 | C[C@@H]1COCCN1c1cc(C2(C#N)CCN(C3CCOC3)CC2)c2ccnc(-c3ccn[nH]3)c2n1 (stereo partly drawn) [Compound 73] | < 1000 nM
13 | C[C@@H]1COCCN1c1cc(C2(C#N)CCN(C3CCN(C)C3)CC2)c2ccnc(-c3ccn[nH]3)c2n1 (stereo partly drawn) [Compound 74] | < 1000 nM
14 | C[C@@H]1COCCN1c1cc(C2(C#N)CCN(C3CC3)CC2)c2ccnc(-c3ccn[nH]3)c2n1 [Compound 46] | < 1000 nM
15 | C[C@@H]1COCCN1c1cc(C2(C#N)CCN(CC3CCOC3)CC2)c2ccnc(-c3ccn[nH]3)c2n1 (stereo partly drawn) [Compound 84] | < 1000 nM
16 | C=CC(C#N)c1cc(N2CCOC[C@H]2C)nc2c(-c3ccn[nH]3)nccc12 (stereo partly drawn) [Compound 7] | > 5000 nM
17 | C[C@@H]1COCCN1c1cc(CC#N)c2ccnc(-c3ccn[nH]3)c2n1 [Compound 1, (R)-2-(2-(3-methylmorpholino)-8-(1H-pyrazol-5-yl)-1,7-naphthyridin-4-yl)acetonitrile] | > 5000 nM
18 | CCOP(=O)(CCN1CCC(C#N)(c2cc(N3CCOC[C@H]3C)nc3c(-c4ccn[nH]4)nccc23)CC1)OCC [Compound 81] | < 1000 nM

Row | SMILES | IC50
19 | CC#CC(C#N)c1cc(N2CCOC[C@H]2C)nc2c(-c3ccn[nH]3)nccc12 (stereo partly drawn) [Compound 8] | > 5000 nM
20 | CCOP(=O)(CCC(C#N)c1cc(N2CCOC[C@H]2C)nc2c(-c3ccn[nH]3)nccc12)OCC (stereo partly drawn) [Compound 12] | 1000 to 5000 nM
21 | C[C@@H]1COCCN1c1cc(C2(C#N)CCN(C3CCN(C)CC3)CC2)c2ccnc(-c3ccn[nH]3)c2n1 [Compound 44] | < 1000 nM
22 | CC(C#N)c1cc(N2CCOC[C@H]2C)nc2c(-c3ccn[nH]3)nccc12 (stereo partly drawn) [Compound 2, 2-(2-((R)-3-methylmorpholino)-8-(1H-pyrazol-5-yl)-1,7-naphthyridin-4-yl)propionitrile] | > 5000 nM
23 | C[C@@H]1COCCN1c1cc(C2(C#N)CCN(c3ccc(F)cn3)CC2)c2ccnc(-c3ccn[nH]3)c2n1 [Compound 47] | 1000 to 5000 nM
24 | C[C@@H]1COCCN1c1cc(C(C#N)CCS(C)(=O)=O)c2ccnc(-c3ccn[nH]3)c2n1 (stereo partly drawn) [Compound 15] | > 5000 nM
25 | C[C@@H]1COCCN1c1cc(C2(C#N)CCNCC2)c2ccnc(-c3ccn[nH]3)c2n1 [Compound 37, (R)-4-(2-(3-methylmorpholino)-8-(1H-pyrazol-5-yl)-1,7-naphthyridin-4-yl)piperidine-4-carbonitrile] | 1000 to 5000 nM
26 | C[C@@H]1COCCN1c1cc(C2(C#N)CCN(CC(=O)N(C)C)CC2)c2ccnc(-c3ccn[nH]3)c2n1 [Compound 77] | < 1000 nM
27 | CCN1CCC(C#N)(c2cc(N3CCOC[C@H]3C)nc3c(-c4ccn[nH]4)nccc23)CC1 [Compound 66] | < 1000 nM
28 | C[C@@H]1COCCN1c1cc(C(C#N)C2CCC2)c2ccnc(-c3ccn[nH]3)c2n1 (stereo partly drawn) [Compound 20] | > 5000 nM
29 | C[C@@H]1COCCN1c1cc(C2(C#N)CCN(CCN(C)C)CC2)c2ccnc(-c3ccn[nH]3)c2n1 [Compound 78] | < 1000 nM
30 | CCC(C#N)c1cc(N2CCOC[C@H]2C)nc2c(-c3ccn[nH]3)nccc12 (stereo partly drawn) [Compound 4] | > 5000 nM
31 | C[C@@H]1COCCN1c1cc(C2(C#N)CCN(C3CCC3)CC2)c2ccnc(-c3ccn[nH]3)c2n1 [Compound 68] | < 1000 nM
32 | C[C@@H]1COCCN1c1cc(C(C#N)CCN(C)C)c2ccnc(-c3ccn[nH]3)c2n1 (stereo partly drawn) [Compound 17] | 1000 to 5000 nM
33 | C[C@@H]1COCCN1c1cc(C(C#N)CCN)c2ccnc(-c3ccn[nH]3)c2n1 (stereo partly drawn) [Compound 16] | 1000 to 5000 nM
34 | C[C@@H]1COCCN1c1cc(C(C#N)CC[S+](C)[O-])c2ccnc(-c3ccn[nH]3)c2n1 (stereo partly drawn) [Compound 14] | > 5000 nM
35 | C[C@@H]1COCCN1c1cc(C2(C#N)CCSCC2)c2ccnc(-c3ccn[nH]3)c2n1 [Compound 30] | 1000 to 5000 nM

Further lines, results first:

Row | IC50 | SMILES
36 | < 1000 nM | C[C@@H]1COCCN1c1cc(C2(C#N)CCC(N3CCCCC3)CC2)c2ccnc(-c3ccn[nH]3)c2n1 (stereo partly drawn) [Compound 64]
37 | 1000 to 5000 nM | CC(=O)N1CCC(C#N)(c2cc(N3CCOC[C@H]3C)nc3c(-c4ccn[nH]4)nccc23)CC1 [Compound 38, (R)-1-acetyl-4-(2-(3-methylmorpholino)-8-(1H-pyrazol-5-yl)-1,7-naphthyridin-4-yl)piperidine-4-carbonitrile]
38 | 1000 to 5000 nM | C[C@@H]1COCCN1c1cc(C(C#N)C2CCC(N(C)C)CC2)c2ccnc(-c3ccn[nH]3)c2n1 (stereo partly drawn) [Compound 23]
39 | 1000 to 5000 nM | C[C@@H]1COCCN1c1cc(C(C#N)C2CCCCC2)c2ccnc(-c3ccn[nH]3)c2n1 (stereo partly drawn) [Compound 21]
40 | < 1000 nM | C[C@@H]1COCCN1c1cc(C2(C#N)CCC3(CC2)COC3)c2ccnc(-c3ccn[nH]3)c2n1 [Compound 51]
41 | < 1000 nM | C[C@@H]1COCCN1c1cc(C2(C#N)CCC(N3CCOCC3)CC2)c2ccnc(-c3ccn[nH]3)c2n1 (stereo partly drawn) [Compound 65]
42 | < 1000 nM | CNC1CCC(C#N)(c2cc(N3CCOC[C@H]3C)nc3c(-c4ccn[nH]4)nccc23)CC1 (stereo partly drawn) [Compound 61]
43 | 1000 to 5000 nM | C[C@@H]1COCCN1c1cc(C2(C#N)CCC2)c2ccnc(-c3ccn[nH]3)c2n1 [Compound 26]
44 | < 1000 nM | C[C@@H]1COCCN1c1cc(C2(C#N)CCC(N)CC2)c2ccnc(-c3ccn[nH]3)c2n1 (stereo partly drawn) [Compound 60]
45 | 1000 to 5000 nM | C[C@@H]1COCCN1c1cc(C(C#N)CCO)c2ccnc(-c3ccn[nH]3)c2n1 (stereo partly drawn) [Compound 9]
46 | 1000 to 5000 nM | C[C@@H]1COCCN1c1cc(C(C#N)CC2CC2)c2ccnc(-c3ccn[nH]3)c2n1 (stereo partly drawn) [Compound 6]
47 | < 1000 nM | C[C@@H]1COCCN1c1cc(C2(C#N)CCC3(CC2)CN(C)C3)c2ccnc(-c3ccn[nH]3)c2n1 [Compound 52]
48 | 1000 to 5000 nM | C[C@@H]1COCCN1c1cc(C(C#N)C2CCOCC2)c2ccnc(-c3ccn[nH]3)c2n1 (stereo partly drawn) [Compound 22]
49 | 1000 to 5000 nM | CC(C)C(C#N)c1cc(N2CCOC[C@H]2C)nc2c(-c3ccn[nH]3)nccc12 (stereo partly drawn) [Compound 5]
50 | < 1000 nM | CCOC1CCC(C#N)(c2cc(N3CCOC[C@H]3C)nc3c(-c4ccn[nH]4)nccc23)CC1 (stereo partly drawn) [Compound 54]
51 | < 1000 nM | CC(C)OC1CCC(C#N)(c2cc(N3CCOC[C@H]3C)nc3c(-c4ccn[nH]4)nccc23)CC1 (stereo partly drawn) [Compound 55]

Row | IC50 | SMILES
52 | < 1000 nM | C[C@@H]1COCCN1c1cc(C2(C#N)CCN(c3cccc(F)c3)CC2)c2ccnc(-c3ccn[nH]3)c2n1 [Compound 48]
53 | 1000 to 5000 nM | C[C@@H]1COCCN1c1cc(C2(C#N)CCN(S(C)(=O)=O)CC2)c2ccnc(-c3ccn[nH]3)c2n1 [Compound 39]
54 | < 1000 nM | C[C@@H]1COCCN1c1cc(C2(C#N)CCC(OC3CCC3)CC2)c2ccnc(-c3ccn[nH]3)c2n1 (stereo partly drawn) [Compound 58]
55 | < 1000 nM | C[C@@H]1COCCN1c1cc(C2(C#N)CCC(N3CCN(C)CC3)CC2)c2ccnc(-c3ccn[nH]3)c2n1 (stereo partly drawn) [Compound 36]
56 | < 1000 nM | C[C@@H]1COCCN1c1cc(C2(C#N)CCN(c3ccc(F)cc3)CC2)c2ccnc(-c3ccn[nH]3)c2n1 [Compound 50]
57 | 1000 to 5000 nM | C[C@@H]1COCCN1c1cc(C(C#N)CC(N)=O)c2ccnc(-c3ccn[nH]3)c2n1 (stereo partly drawn) [Compound 11]
58 | < 1000 nM | C[C@@H]1COCCN1c1cc(C2(C#N)CCC3(CC3)CC2)c2ccnc(-c3ccn[nH]3)c2n1 [Compound 32]
59 | 1000 to 5000 nM | C[C@@H]1COCCN1c1cc(C(C#N)CCN2CCN(C)CC2)c2ccnc(-c3ccn[nH]3)c2n1 (stereo partly drawn) [Compound 19]
60 | < 1000 nM | C[C@@H]1COCCN1c1cc(C2(C#N)CCN(c3ccc(Cl)cc3)CC2)c2ccnc(-c3ccn[nH]3)c2n1 [Compound 45, (R)-1-(4-chlorophenyl)-4-(2-(3-methylmorpholino)-8-(1H-pyrazol-5-yl)-1,7-naphthyridin-4-yl)piperidine-4-carbonitrile]
61 | 1000 to 5000 nM | C[C@@H]1COCCN1c1cc(C(C#N)CCN2CCCC2)c2ccnc(-c3ccn[nH]3)c2n1 (stereo partly drawn) [Compound 18]
62 | < 1000 nM | C[C@@H]1COCCN1c1cc(C2(C#N)CCC(OC3CCCC3)CC2)c2ccnc(-c3ccn[nH]3)c2n1 (stereo partly drawn) [Compound 59]
63 | < 1000 nM | CCN(CC)C1CCC(C#N)(c2cc(N3CCOC[C@H]3C)nc3c(-c4ccn[nH]4)nccc23)CC1 (stereo partly drawn) [Compound 62]
64 | < 1000 nM | C[C@@H]1COCCN1c1cc(C2(C#N)CCC(N3CCC3)CC2)c2ccnc(-c3ccn[nH]3)c2n1 (stereo partly drawn) [Compound 63]
65 | < 1000 nM | C[C@@H]1COCCN1c1cc(C2(C#N)CCC(OCC3CC3)CC2)c2ccnc(-c3ccn[nH]3)c2n1 (stereo partly drawn) [Compound 56]
66 | < 1000 nM | C[C@@H]1COCCN1c1cc(C2(C#N)CCCCCC2)c2ccnc(-c3ccn[nH]3)c2n1 [Compound 31]
